According to patent publication US20130231262A1, “ENGINEERED PROTEIN: "2-COLOR SERCA", AN ION-MOTIVE ATPase FUSED TO CERULEAN AND YELLOW FLUORESCENT PROTEIN” (LOYOLA UNIVERSITY CHICAGO, priority 2012, published 2013):

Assays:
[1] = molecular target: T1, 2-color SERCA (construct 509) (Canis lupus familiaris, UniProt O46674); experiment: Tg titration of 2-color SERCA FRET change in AAV-293 cells; type: cell-based, canine
T1 construct: other: Tg-dependent FRET change of construct 509; mCerulean (Cer) was fused to the N-terminus of canine SERCA2a; fused on or other part: mCerulean at the N-terminus
Protocol: One consequence of the slow FRET response at low concentrations of Tg is that the apparent EC50 decreased over time. This is evident in FIG. 8B as a left shift in the binding curve with time. This change is quantified in FIG. 8C. The apparent upper limit estimate of EC50 (obtained from the final EC50 value) was approximately 100 nM, which is compatible with the subnanomolar affinity of the Tg-SERCA complex.

[2] = test system: 2-color SERCA (construct 509); conditions: cited from earlier work

T1 sequence (O46674 whole entry, the tested form may be a part): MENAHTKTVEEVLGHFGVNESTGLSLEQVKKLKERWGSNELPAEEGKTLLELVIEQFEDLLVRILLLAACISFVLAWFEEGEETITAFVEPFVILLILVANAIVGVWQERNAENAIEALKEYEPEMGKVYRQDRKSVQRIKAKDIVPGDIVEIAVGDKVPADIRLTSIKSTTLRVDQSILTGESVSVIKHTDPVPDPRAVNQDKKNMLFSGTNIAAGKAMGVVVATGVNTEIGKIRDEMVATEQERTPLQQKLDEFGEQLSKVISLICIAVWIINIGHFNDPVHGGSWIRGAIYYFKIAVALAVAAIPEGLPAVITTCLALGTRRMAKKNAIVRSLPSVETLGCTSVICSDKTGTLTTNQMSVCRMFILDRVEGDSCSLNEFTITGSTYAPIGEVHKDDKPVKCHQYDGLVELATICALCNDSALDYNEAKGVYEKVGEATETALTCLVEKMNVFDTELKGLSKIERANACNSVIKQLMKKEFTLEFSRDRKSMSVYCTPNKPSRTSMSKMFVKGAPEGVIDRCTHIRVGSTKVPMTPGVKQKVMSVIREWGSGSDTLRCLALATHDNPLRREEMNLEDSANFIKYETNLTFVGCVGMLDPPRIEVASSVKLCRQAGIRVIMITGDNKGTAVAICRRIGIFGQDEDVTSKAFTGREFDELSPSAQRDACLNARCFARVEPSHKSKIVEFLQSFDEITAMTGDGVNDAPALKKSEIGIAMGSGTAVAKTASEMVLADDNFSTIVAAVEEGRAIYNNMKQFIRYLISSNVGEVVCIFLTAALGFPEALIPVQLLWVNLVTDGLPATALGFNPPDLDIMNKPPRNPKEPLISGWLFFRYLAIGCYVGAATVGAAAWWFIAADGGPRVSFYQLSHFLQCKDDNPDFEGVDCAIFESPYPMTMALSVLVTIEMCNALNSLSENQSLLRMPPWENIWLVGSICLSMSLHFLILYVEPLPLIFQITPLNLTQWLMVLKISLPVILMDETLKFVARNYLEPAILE

## C/C=C(/C)C(=O)O[C@H]1C(C)=C2[C@H]([C@@H]1OC(=O)CCCCCCC)[C@@](C)(OC(C)=O)C[C@H](OC(=O)CCC)[C@@]1(O)[C@H]2OC(=O)[C@@]1(C)O [Tg, thapsigargin]
[1]
  EC50: ~100 nM
[2]
  affinity of the Tg-SERCA complex: subnanomolar
